Data: publication PMC4367813 (Current medicinal chemistry, 2012)
Read-outs that look alike come from different tables or passages of the source. Residues, ends and D or L forms follow the SMILES beside them. *: point of attachment. Cbz = O=C(OCc1ccccc1)*

Tests used:
PRCP = conditions: read-out: PRCP IC50, cited from earlier work
carboxypeptidase A (CPA) = target: T1, carboxypeptidase A (CPA) (Bos taurus, UniProt P00730); test: Specificity: carboxypeptidase A inhibition; type: biochemical
T1 sequence (P00730 111-419): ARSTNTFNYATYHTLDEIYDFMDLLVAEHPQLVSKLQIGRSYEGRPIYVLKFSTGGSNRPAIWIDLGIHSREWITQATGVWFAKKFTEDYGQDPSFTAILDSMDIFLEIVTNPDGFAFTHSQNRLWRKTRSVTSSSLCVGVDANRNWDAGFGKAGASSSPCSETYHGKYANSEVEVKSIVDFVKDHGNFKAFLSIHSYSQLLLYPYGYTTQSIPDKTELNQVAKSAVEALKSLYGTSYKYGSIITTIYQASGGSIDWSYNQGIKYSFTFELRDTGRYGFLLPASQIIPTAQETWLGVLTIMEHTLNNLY

carboxypeptidase M (CPM) = target: T2, carboxypeptidase M (CPM) (Homo sapiens, UniProt P14384); test: Specificity: carboxypeptidase M inhibition; type: biochemical; conditions: Table 5, NE = no effect
T2 sequence (P14384 18-443): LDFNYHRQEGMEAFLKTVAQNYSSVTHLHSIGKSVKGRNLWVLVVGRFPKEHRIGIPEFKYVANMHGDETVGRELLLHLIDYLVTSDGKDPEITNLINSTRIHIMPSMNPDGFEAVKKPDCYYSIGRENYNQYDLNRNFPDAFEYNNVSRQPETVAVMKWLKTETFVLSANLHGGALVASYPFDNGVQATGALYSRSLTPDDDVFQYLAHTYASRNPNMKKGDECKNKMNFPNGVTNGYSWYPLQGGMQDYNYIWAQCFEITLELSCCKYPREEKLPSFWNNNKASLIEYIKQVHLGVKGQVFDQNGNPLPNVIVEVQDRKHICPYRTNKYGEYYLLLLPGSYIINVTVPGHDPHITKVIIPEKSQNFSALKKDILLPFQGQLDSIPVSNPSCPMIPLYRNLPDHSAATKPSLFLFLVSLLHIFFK

carboxypeptidase B (CPB) = target: T3, carboxypeptidase B (CPB) (Sus scrofa, UniProt P09955); test: Specificity: carboxypeptidase B inhibition; type: biochemical; conditions: Table 5, NE = no effect
T3 sequence (P09955 111-416): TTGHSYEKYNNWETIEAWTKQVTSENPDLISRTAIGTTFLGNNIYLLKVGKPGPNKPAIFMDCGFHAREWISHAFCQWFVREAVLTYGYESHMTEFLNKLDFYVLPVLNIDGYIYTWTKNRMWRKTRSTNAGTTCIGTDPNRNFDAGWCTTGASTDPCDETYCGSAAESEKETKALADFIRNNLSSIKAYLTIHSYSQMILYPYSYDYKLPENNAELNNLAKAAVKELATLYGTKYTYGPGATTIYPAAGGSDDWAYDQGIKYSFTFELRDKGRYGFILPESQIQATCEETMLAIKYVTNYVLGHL

[1] = target: T4, carboxypeptidase N (hCPN, partially purified from plasma) (Homo sapiens, UniProt P15169); test: Specificity: carboxypeptidase N inhibition; type: biochemical; conditions: Table 5, NE = no effect
T4 sequence (P15169 21-458): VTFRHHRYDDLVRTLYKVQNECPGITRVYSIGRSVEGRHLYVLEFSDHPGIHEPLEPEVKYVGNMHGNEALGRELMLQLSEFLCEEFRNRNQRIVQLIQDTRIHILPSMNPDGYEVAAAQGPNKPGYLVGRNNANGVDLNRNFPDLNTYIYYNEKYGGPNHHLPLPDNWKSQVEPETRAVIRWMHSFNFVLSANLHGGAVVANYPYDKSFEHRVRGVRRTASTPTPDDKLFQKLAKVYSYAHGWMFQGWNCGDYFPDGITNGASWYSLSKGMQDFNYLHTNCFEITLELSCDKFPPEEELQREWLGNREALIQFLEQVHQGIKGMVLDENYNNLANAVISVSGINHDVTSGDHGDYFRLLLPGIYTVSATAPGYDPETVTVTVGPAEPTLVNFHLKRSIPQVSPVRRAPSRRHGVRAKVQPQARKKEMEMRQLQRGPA
T4 sequence (P22792 22-545 partner): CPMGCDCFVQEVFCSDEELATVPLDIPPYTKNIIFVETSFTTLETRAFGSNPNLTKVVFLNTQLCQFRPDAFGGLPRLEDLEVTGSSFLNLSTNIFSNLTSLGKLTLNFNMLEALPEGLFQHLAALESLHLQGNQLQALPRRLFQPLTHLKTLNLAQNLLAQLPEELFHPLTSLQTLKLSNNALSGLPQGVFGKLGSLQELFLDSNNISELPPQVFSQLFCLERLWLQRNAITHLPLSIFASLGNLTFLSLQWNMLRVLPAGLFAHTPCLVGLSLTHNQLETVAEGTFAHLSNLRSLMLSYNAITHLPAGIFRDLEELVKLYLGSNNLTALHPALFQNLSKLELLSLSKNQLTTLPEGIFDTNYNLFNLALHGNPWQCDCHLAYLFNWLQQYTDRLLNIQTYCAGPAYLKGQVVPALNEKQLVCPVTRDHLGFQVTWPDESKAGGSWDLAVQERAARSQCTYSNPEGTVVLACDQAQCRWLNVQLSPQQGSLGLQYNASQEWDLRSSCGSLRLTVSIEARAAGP

NO formation on HPAEC = test: PRCP-induced nitric oxide formation on HPAEC; type: cell-based, human; conditions: HPAEC with HK/PK complexes, 100 µM
[2] = test system: PGI2 (6-keto prostaglandin F1α) release from HPAEC; test: PRCP-induced 6-keto prostaglandin F1α release from HPAEC; type: cell-based, human; conditions: HPAEC with HK/PK complexes, 100 µM
food intake in mice = conditions: fasted mice
recombinant PRCP (rPRCP) = target: T5, recombinant PRCP (rPRCP) (Homo sapiens, UniProt P42785); test: rPRCP activity, cleavage of chromogenic substrate APpNA; type: biochemical; conditions: 1 mM APpNA, 60 min; NE = no effect
T5 sequence (P42785 46-496): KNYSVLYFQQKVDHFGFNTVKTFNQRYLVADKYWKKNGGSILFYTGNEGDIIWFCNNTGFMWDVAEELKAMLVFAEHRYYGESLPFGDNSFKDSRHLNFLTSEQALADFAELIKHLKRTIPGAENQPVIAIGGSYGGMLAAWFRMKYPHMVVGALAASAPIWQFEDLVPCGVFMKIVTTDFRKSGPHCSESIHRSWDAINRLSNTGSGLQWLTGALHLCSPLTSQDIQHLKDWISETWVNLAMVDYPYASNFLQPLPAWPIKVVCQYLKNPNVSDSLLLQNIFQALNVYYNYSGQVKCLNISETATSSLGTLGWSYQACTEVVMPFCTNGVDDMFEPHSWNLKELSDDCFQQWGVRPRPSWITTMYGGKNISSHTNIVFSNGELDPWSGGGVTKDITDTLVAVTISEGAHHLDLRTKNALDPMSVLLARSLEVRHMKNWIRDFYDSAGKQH

[3] = target: PRCP-dependent prekallikrein (PK) activation on HPAEC; test: PRCP-dependent PK activation on HPAEC; type: cell-based, human; conditions: 20 nM HK, 20 nM PK; NE = no effect
[4] = mice, Compound 3 (400 µM), within 8 hours of administration

In the case of `O=C[C@@H]1CCCN1C(=O)[C@@H]1CCCN1C(=O)OCc1ccccc1` (Cbz-Pro-Pro-aldehyde), the IC50 (PRCP) is listed as over 1000 µM.
Molecule `c1cnc2c(c1)ccc1cccnc12` [1,10-Phenanthroline, 1,10-phenanthroline, reference compound] has a Ki (carboxypeptidase A (CPA)) of 486 µM and a Ki (carboxypeptidase M (CPM); Ki CPM) of 394 µM.
With `CCCCCCCCCCCCNC(=O)[C@@H]1CCCN1C(=O)[C@@H]1CCCN1` [Compound 3, (S)-N-dodecyl-1-((S)-pyrrolidine-2-carbonyl) pyrrolidine-2-carboxamide] the “Ki CPA” value (carboxypeptidase A (CPA); Table 5, NE = no effect) was “not inhibited”, the Ki (carboxypeptidase A (CPA); read-out: Ki CPA, Table 5, NE = no effect) was over 1000 µM and the “Ki CPB” value (carboxypeptidase B (CPB)) was “not inhibited”. For the same molecule, the Ki (carboxypeptidase B (CPB); read-out: Ki CPB) was over 1000 µM, the “Ki CPN” value [1] was “did not inhibit” and the Ki ([1]; read-out: Ki CPN) was over 1000 µM. The “Ki CPM” value (carboxypeptidase M (CPM)) was “did not inhibit”, the Ki (carboxypeptidase M (CPM); read-out: Ki CPM) was over 1000 µM and the “reduction of NO production” value (NO formation on HPAEC) was 80%. For the same molecule, the “reduction of PGI2 production” value [2] was 80%, the food intake (food intake in mice; 1 mg/kg ip, 1-24 h) was “lower food intake, although the reduction was not significant at 2, 4, 8, or 24 h” and the food intake (food intake in mice; 10 mg/kg ip, all time intervals 1-24 h, P < 0.05 vs saline) was “Significant declines in food intake”. For the same molecule, the “time at which attenuation of food intake started” value (food intake in mice; ip) was at most 1 h, the ALB (Metabolic panel; [4]) was 3.9 and the ALP (Metabolic panel; [4]) was 93. The ALT (Metabolic panel; [4]) was 33, the AMY (Metabolic panel; [4]) was 1041 and the BUN (Metabolic panel; [4]) was 19. For the same molecule, the CRE (Metabolic panel; [4]) was 0.3, the “Ca^2+” value (Metabolic panel; [4]) was 9.9 and the GLOB (Metabolic panel; [4]) was 1.5. For the same molecule, the GLU (Metabolic panel; [4]) was 165, the “K+” value (Metabolic panel; [4]) was 5.4 and the “Na+” value (Metabolic panel; [4]) was 151. It also gave a PHOS (Metabolic panel; [4]) of 8.0, a TBIL (Metabolic panel; [4]) of 0.4 and a TP (Metabolic panel; [4]) of 5.3. The “changes in electrolyte levels, or markers of kidney and liver function” value (Metabolic panel; mice, within 8 hours of administration) was “did not cause significant changes” and the “decrease in blood glucose levels” value (Metabolic panel; treated mice, n=3, P = 0.26) was 15%.
For `O=C[C@@H]1CCCN1C(=O)[C@@H]1CCCN1C(=O)OCc1ccccc1` [z-Pro-Prolinal, 1-[1-(benzyloxycarbonyl)-L-prolyl] prolinal] (Cbz-Pro-Pro-aldehyde), the “rPRCP Ki” value (recombinant PRCP (rPRCP)) is given as “little effect”, the “PRCP-Dependent PK Activation on HPAEC Ki” value [3] is given as “little effect” and the IC50 (PRCP; listed as Z-Pro-Pro-OH) is given as over 2000 µM.
